# Measured values as given in patent US8642008B2, “Molecular probe for imaging of pancreatic islets and use of the same” (priority 2009, dated 2014).
# Assays:
# pancreatic islets = details: cited from earlier work
# [1] = test system: GLP-1R-positive tumor cells; details: cited from earlier work
# [2] = mouse, iv
# Experimental: (§1) At points of 5 minutes, 15 minutes, 30 minutes, 60 minutes, and 120 minutes after the administration, organs were dissected out of the mice, respectively (n=5). The weight and the radioactivity of each organ were determined, and an accumulation amount (% dose/g) of the molecular probe was calculated from the radioactivity per unit weight. […] FIG. 1A is a graph showing how the accumulation of the molecular probe in each organ varied with time, and FIG. 1B is a graph of an enlarged part of FIG. 1A.
# 1, biodistribution of the same in a mouse was determined. […] The determination of biodistribution was carried out in the same manner as that in Example 1.
# as §1, with “5A” for “1A”, “5B” for “1B”, “5A.” for “FIG. 1A.”
# pancreatic β-cells = assay: Two-dimensional imaging analysis of pancreas sections of MIP-GFP mice (fluorescence and autoradiography); type: in vivo, mouse
# Experimental: Two-dimensional imaging analysis was performed using transgenic mice that have a genetic background of C57BL/6 mice and express GFP (green fluorescent protein) under regulation of MIP (mouse insulin I gene promoter) (hereinafter these mice are referred to as “MIP-GFP mice”). […] Sections were cut out of the dissected pancreases, and each section was placed on a slide glass, covered with a cover glass. Fluorescence and radioactivity (autoradiography) of each section were determined using an image analyzer (trade name: Typhoon 9410, produced by GE Health Care Inc.) (exposure time: 14 hours).
# Sections were cut out of the dissected pancreases, and fluorescence and radioactivity of each section were determined in the same manner as described above.
# DPP (dipeptidyl peptidase) IV inhibitor (0.1 mL of 6 mg/mL solution) was administered by intravenous injection to unanesthetized MIP-GFP mice (male, weight: 20 g), and these mice were used as controls 1-2. […] Sections were cut out of the dissected pancreases, and fluorescence and radioactivity of each section were determined in the same manner as described above. […]
# Sections were cut out of the dissected pancreases, and fluorescence and radioactivity of each section thus obtained were determined in the same manner as described above.
Substance,uptake in pancreatic islets (pancreatic islets),uptake in the GLP-1R-positive tumor cells [1],"accumulation amount in the pancreas, times as much as that in the intestine ([2]; in vivo)","accumulation amount in the pancreas, times as much as that in the stomach ([2]; in vivo)",change with time of accumulation in the thyroid gland (deiodization metabolism in vivo) [2],localization of the radioactivity signal versus GFP signal in pancreas sections (pancreatic β-cells; 30 and 60 minutes after administration),radioactivity signal of pancreas sections after preliminary administration of cold probe exendin(9-39) (pancreatic β-cells; 30 minutes after probe)
Lys^40(Ahx-DTPA-^111In)Exendin-(9-39),about 0.4%,about 7.5%,,,,,
"formula (35): exendin(9-39) sequence, α-amino group at N-terminus labeled with [125I] 3-iodobenzoyl group, C-terminus amidated",,,not less than 11 times,not less than 3 times,no great change,consistent with that of the GFP signal,substantially no radioactivity signal was detected
